#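 Test compounds were applied to cells in 96-well plates for 48 hours at 5 doses. GI50 = concentration required for 50% inhibition of growth. TGI denotes the concentration required for complete inhibition of growth.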
# Legend:
# Assay in all cases: NCI tumour cell line growth inhibition, 48 h
# [1] = system: T-47D breast
# [2] = system: SF-539 CNS
# [3] = system: HCT-116 colon
# [4] = system: UACC-62 melanoma
# [5] = system: UACC-257 melanoma
# [6] = system: IGROV1 ovarian
# [7] = system: COLO 205 colon
# [8] = system: EKVX NSCLC
# [9] = system: SK-OV-3 ovarian
# [10] = system: NCI-H23 lung
# [11] = system: OVCAR-3 ovarian
# [12] = system: TK-10 renal
# [13] = system: SNB-19 CNS
# [14] = system: HOP-62 NSCLC
# [15] = system: MALME-3M melanoma
# [16] = system: PC-3 prostate
# [17] = system: NCI-H460 lung
# [18] = system: HS 578T breast
# [19] = system: HOP-92 NSCLC
# [20] = system: NCI-H522 lung
# [21] = system: LOX IMVI melanoma
# [22] = system: HT29 colon
# [23] = system: SK-MEL-5 melanoma
# [24] = system: HL-60(TB) leukemia
# [25] = system: HCT-15 colon
# [26] = system: A498 renal
# [27] = system: SF-268 CNS
# [28] = system: SK-MEL-28 melanoma
# [29] = system: MDA-MB-435
structure (smiles),measurement,setting,value
O=C(Nc1ccc(Cl)c(Cl)c1)Nc1ccccc1O,GI50,[1],4.11 µM
same,TGI,[1],43.6 µM
same,GI50,[2],12.4 µM
same,TGI,[2],30.4 µM
same,GI50,[3],7.22 µM
same,TGI,[3],33.5 µM
same,GI50,[4],5.12 µM
same,TGI,[4],19.8 µM
same,GI50,[5],6.6 µM
same,TGI,[5],25 µM
same,GI50,[6],6.48 µM
same,TGI,[6],29.3 µM
same,GI50,[7],5.38 µM
same,TGI,[7],18.6 µM
same,GI50,[8],18.2 µM
same,TGI,[8],61.5 µM
same,GI50,[9],16 µM
same,TGI,[9],40.8 µM
same,GI50,[10],2.98 µM
same,TGI,[10],16.1 µM
same,GI50,[11],3.24 µM
same,TGI,[11],13.5 µM
same,GI50,[12],6.41 µM
same,TGI,[12],28 µM
same,GI50,[13],9.92 µM
same,TGI,[13],44.3 µM
same,GI50,[14],10.6 µM
same,TGI,[14],24.1 µM
same,GI50,[15],4.82 µM
same,TGI,[15],20.3 µM
same,GI50,[16],3.09 µM
same,TGI,[16],27.9 µM
same,GI50,[17],4.03 µM
same,TGI,[17],16.1 µM
same,GI50,[18],6.69 µM
same,TGI,[18],37.5 µM
same,GI50,[19],6.46 µM
same,TGI,[19],27.3 µM
same,GI50,[20],2.65 µM
same,TGI,[20],15.5 µM
same,GI50,[21],4.58 µM
same,TGI,[21],24.2 µM
same,GI50,[22],18.5 µM
same,TGI,[22],36.1 µM
same,GI50,[23],7.71 µM
same,TGI,[23],20.5 µM
same,GI50,[24],3.7 µM
same,TGI,[24],36.2 µM
same,GI50,[25],4.46 µM
same,TGI,[25],23.9 µM
same,GI50,[26],12.2 µM
same,TGI,[26],27.2 µM
same,GI50,[27],9.59 µM
same,TGI,[27],27.4 µM
same,GI50,[28],12.5 µM
same,TGI,[28],27.3 µM
same,GI50,[29],3.96 µM
same,TGI,[29],15.3 µM

# — PubChem BioAssay (NCI)
